# Data from a melting point compilation (Tetko et al.; mined from patent text by program, amines drawn as free bases though some values may be those of a salt).
row,SMILES,melting point [°C]
1,CSc1cc(SC)c2ccc3c(SC)cc(SC)c4ccc1c2c43,275 to 280
2,CS(=O)(=O)c1ccc(/C(=C(\CCO)C(=O)O)c2ccc(Cl)cc2)cc1,144 to 145
3,COc1ccc(NC(=O)NCC2(c3ccccc3)CCCCC2)cc1,155 to 157
4,CC(C)(C)C(NC(=O)c1ccc(-c2ccco2)cc1)Nc1c(Nc2cccnc2)c(=O)c1=O (stereo not drawn),230 to 232
5,c1ccc(C2=Nc3cccnc3Nc3ccccc32)cc1,106 to 108
6,COCc1c(S(C)(=O)=O)ccc(C(=O)O)c1C,129 to 131
7,CCCOc1ccccc1C(=O)Nc1ccccc1C(N)=O,149 to 150
8,COC(=O)c1ccccc1S(=O)(=O)NC(=O)Nc1nc(OC)nc(C2CC2)n1,166 to 168
9,COc1ccc(S(=O)(=O)Nc2ccncc2)c2c1[nH]c1ccccc12,311 to 313
10,COc1ccc(S(=O)(=O)C2(Cc3ccccc3)SC(=O)N(CC(=O)NO)C2=O)cc1 (stereo not drawn),81 to 85
11,O=C(O)COc1ccc(CC2SC(=O)NC2=O)cc1 (stereo not drawn),181 to 183
12,Nc1nc2c(s1)CCN(CC=Cc1cc(Br)c(N)c(Br)c1)CC2,198 to 199
13,N#Cc1c(N2CCc3ccccc3CC2)nc(CCOC2CCCCO2)[nH]c1=O (stereo not drawn),185 to 187
14,CCC(C)(C)N=NC(C)(C#N)CCC(=O)O (stereo not drawn),60 to 62
15,O=C(Cc1ccc(Cl)cc1C(=O)O)Nc1cccc(/C=C/c2nc(C3CCC3)cs2)c1,223 to 225
16,COc1cccc(C(=O)OC2CC3C(=O)NC4(C(=O)NS(=O)(=O)C5CC5)CC4C=CCOCCCC(NC(=O)OC(C)(C)C)C(=O)N3C2)c1 (stereo not drawn),149 to 151
17,CC(=O)NCC1(N2CCN(C)CC2)CCCCC1,110 to 111
18,NC(=O)N(O)CCNC(=O)Cc1cccc(Oc2ccccc2)c1,150 to 152
19,CC(C)(C)OC(=O)N1C[C@@H](C=O)CC1=O,120 to 122
20,Nc1sc2c(c1C(=O)c1ccc3ccccc3c1)CCN(Cc1ccc(F)cc1)C2,94 to 96

row,SMILES,melting point [°C]
1,O=[N+]([O-])c1ccc(OCc2cccc(F)c2)cc1,104 to 105
2,CN(C)C(=O)Nc1ccc(N2CCOCC2)cc1,199 to 204
3,CC(c1ccc2c(=O)c3ccccc3ccc2c1)C1N(c2ccccc2)CCN1c1ccccc1 (stereo not drawn),81 to 89
4,CC(NC(=O)C1CCCN1C(=O)CNP(=O)(Cc1ccccc1)Cc1ccccc1)C(=O)OCc1ccccc1 (stereo not drawn),77 to 80
5,CCc1c(-c2ccc(O)cc2)c2cc(COCCCN3CCCCC3)c3cccc1n32,176 to 178
6,Cc1oc(-c2ccccc2)nc1CCOc1ccc(C=CC=CC=C2OC(=O)NC2=O)cc1,209 to 211
7,CC(C)(C)OC(=O)N[C@@H](Cc1ccc(O)cc1)C(=O)NCC(=O)NCC(=O)O,92 to 94
8,CS(=O)(=O)c1ccc(-c2cnn(CC(=O)c3csc4ccccc34)c(=O)c2-c2ccc(F)cc2)cc1,183 to 184
9,CC(=O)NC(=C(C)C(=O)O)c1ccccc1,190
10,O=C(O)COc1ccc2c(c1)-c1nc(SCC(c3ccccc3)c3ccccc3)sc1CC2,165 to 167
11,O=C(Nc1ccc(OCc2ccncc2)c2ccccc12)c1cc(F)cc(OC2CCOCC2)c1,182 to 184
12,CC(C)(C)c1cc(C(=O)Nc2ccc(CC(=O)O)cc2)cc(C(C)(C)C)c1O,253 to 254
13,O=C(OC1CCCC1)c1ncn2c1[C@@H]1CCCN1C(=O)c1c(Cl)cccc1-2,210 to 212
14,CC(C)c1c(CO)c(-c2ccc(F)cc2)nc2ccccc12,208 to 210
15,CCOC1=NS(=O)(=O)C(C#N)=C1N,228 to 229
16,O=C(Nc1ccccc1)NN1CCc2[nH]c(=O)n3nc(-c4ccccc4F)nc3c2C1,291 to 293
17,CCCCCCCCCCCCCCOc1ccc(COC(=O)Oc2ccccc2)cc1,34 to 35
18,O=[N+]([O-])c1ccccc1S,40 to 42
19,CCCCCc1sc(C(=O)OCC)nc1-c1ccccc1,51 to 52
20,NCC(O)c1cccc(C(F)(F)F)c1 (stereo not drawn),72

row,SMILES,melting point [°C]
1,Cc1[nH]c2ccccc2c1C(=O)CCCl,137 to 140
2,O=[N+]([O-])C(F)(CCc1nnc(C(F)(F)C(F)(F)C(F)(F)F)o1)[N+](=O)[O-],21 to 22
3,COc1cc2c(cc1OC)C(C(=O)Nc1c(C(C)C)cccc1C(C)C)SCC2 (stereo not drawn),72 to 74
4,CC(C)(C)OC(=O)NCC(=O)Nc1ccccc1OCc1ccccc1,80 to 82
5,[O-][N+](C1C2CC(c3ccccc32)C1Cl)=[N+]([O-])C1C2CC(c3ccccc32)C1Cl (stereo not drawn),187 to 188
6,COC(=O)c1ccc(CN(Cc2cc(Br)ccc2OCc2ccccc2)c2ccc(C(=O)OC(C)(C)C)cc2)cc1,154 to 155
7,Cc1cn(C2OC(CO)C(O)C2O)c(=S)[nH]c1=O (stereo not drawn),206 to 208
8,O=C(NCCC(O)(c1ccccc1)c1ccccc1)c1ccccc1,145 to 146
9,CCN=C(SC)N(C)Cc1ccc(Cl)nc1,132 to 133
10,CCc1c(-c2ccc3cn[nH]c3c2)cc(Nc2ccc(N3CCN(CC)CC3)cn2)c2nccn12,217
11,COc1cccc(-c2cc(S(=O)(=O)c3ccc(N)cc3)cc(N3CCCC3)n2)c1,214 to 215
12,CCc1nc(/C=C/c2cn(-c3ccccc3)nc2OCc2ccc(OCc3nc(-c4cccc(C#N)c4)oc3C)c(OC)c2)cs1,138 to 140
13,CCOC1CCN(C(=O)c2cc(-c3ccccc3)c(=O)n3ccc4ccsc4c23)C1 (stereo not drawn),167 to 170
14,CC1CCc2ccc(O)cc2O1 (stereo not drawn),94 to 95
15,COc1ccccc1N1CCN(CCCc2ccc(C3CCC(=O)N3)cc2)CC1 (stereo not drawn),109 to 111
16,CC(C)(C)OC(=O)c1ccc(NC2CCc3cc(NC(=O)COCc4ccccc4)c(C#N)cc32)cc1 (stereo not drawn),194 to 195
17,CC(=O)Nc1cc(NC(C)=C2C(=O)OC(=O)C(C(C)=O)=C2O)cc([N+](=O)[O-])c1,> 270
18,Cc1ccc(S(=O)(=O)N[C@@H]2COC(C)(C)OC[C@H]2OS(=O)(=O)c2ccc(C)cc2)cc1 (relative stereo),200 to 202
19,CCCCC(C)c1cc(O)c2c(c1)OC(C)(C)CC2C1=CCN(Cc2ccc3ccccc3c2)CC1 (stereo not drawn),49 to 52
20,O=C(O)CN1C(=O)C(=O)N(Cc2cccc([N+](=O)[O-])c2)C1=S,188

# The remaining lines, values ahead:
row,melting point [°C],SMILES
1,120,CNc1cc(Cl)cc(Cl)c1[N+](=O)[O-]
2,94 to 97,O=C(O)c1cccc(NC(=O)C(CS)Cc2cccnc2)c1 (stereo not drawn)
3,129 to 131,Cc1c(C(F)(F)F)n(C)c(=O)n(-c2ccc(Br)cc2F)c1=O
4,160 to 162,Cc1cccc(Nc2cc(Nc3ccc(OCC(=O)N(CCO)CCO)cc3)ncn2)c1
5,167 to 168,OCCNc1nc(Cl)nc2c1ncn2C1CC(O)C(CO)O1 (stereo not drawn)
6,127 to 129,Cn1ccnc1Sc1ccc(Cl)cc1N
7,148 to 149,CCOP(=O)(/C=C/c1cn(-c2ccccc2)nc1OCc1ccc(OCc2nc(-c3cccc(C(=O)O)c3)oc2C)c(OC)c1)OCC
8,240 to 250,C[C@@H](NC(=O)c1c[nH]c2ncc(-c3nn(CCCO)c4cc(Cl)ccc34)nc12)C(=O)N1CC(C#N)C1
9,176 to 178,O=C1CSC(=S)N1c1ccc(Cl)c(Cl)c1
10,118 to 119,Cc1c(F)c(F)c(C)c(C(=O)O)c1F
11,119 to 121,CS(=O)(=O)c1ccc(Oc2ccc(Cl)c(Cl)c2)c(N)c1
12,122 to 125,CC(=O)Oc1nc(-c2ccc(C)cc2)sc1-c1ccccc1
13,162 to 165,CC(C)NC(=O)Nc1ccc(-c2ccnc3c(C(=O)c4cccs4)cnn23)s1
14,235 to 240,NC(=O)N1C(=O)C(C(=O)c2sccc2F)c2cc(Cl)ccc21 (stereo not drawn)
15,87.5,CCOC(=O)c1cc(C#N)cc(CO)n1
16,52 to 53.5,COC(=O)c1sc(C(F)(F)F)cc1OCc1ccccc1
17,120 to 121,O=C1CC(=O)NC(c2ccc(Cl)cc2)=N1
18,211 to 213,Fc1ccc(/C=C/C2=CCN(Cc3c[nH]c4ncccc34)CC2)cc1
19,232 to 234,CN1CCC[C@H]1c1cnccc1C(O)(c1ccccc1)c1ccccc1

row,melting point [°C],SMILES
1,192 to 193,O=C(O)c1nc(Cl)cc([N+](=O)[O-])c1Cl
2,90 to 92,C=CNC(=S)n1nc(Oc2ncc(C(F)(F)F)cc2Cl)cc1C
3,184 to 186,Oc1ccc(-c2cc3cc(Cl)cc(Cl)c3o2)cc1
4,97 to 98,Cc1c(C#N)ncn1-c1cccc(Oc2ccccc2)c1
5,154 to 156,CCOC1=NS(=O)(=O)c2ccc(N)cc21
6,188 to 193,CC(=O)OCc1c(-c2cc(Nc3cc4n(n3)CCN(C)C4)c(=O)n(C)n2)cccc1-n1ncc2cc(C(C)(C)C)cc(F)c2c1=O
7,122 to 124,Fc1ccc(Oc2ccnc3cccnc23)cc1
8,62 to 64,CCOC(=O)c1cc2ccccc2n1C
9,244 to 246,Cn1ncnc1COc1nn2c(-c3ccccc3)nnc2cc1C12CCC(CC1)C2
10,142 to 145,CCCCN(CC)c1nc(C)nc2c1C(C)(C)C(O)N2c1c(C)cc(C)cc1C (stereo not drawn)
11,152,CC(O)CN(C)Cc1cc2c(=O)c(C(=O)NCc3ccc(Cl)cc3)cn(C)c2o1 (stereo not drawn)
12,115 to 118,CC(C)c1ccccc1N1/C(=N\N=C/c2ccc(-c3ncn(-c4ccc(OC(F)(F)F)cc4)n3)cc2)SCC1(O)c1ccccc1C(F)(F)F (stereo not drawn)
13,95 to 96,CCCOc1ccc(CCCOc2nn(C)cc2CC(=O)O)c(Oc2ncc(C(F)(F)F)cc2Cl)c1
14,103 to 111,COc1cccc(S(=O)c2cccc(F)c2C#N)c1 (stereo not drawn)
15,260,CC(=O)Nc1nc2c(Oc3cc(-c4ccc(C(F)(F)F)cc4NC(=O)C4CCCCN4C(C)C)ncn3)cccc2s1 (stereo not drawn)
16,197 to 198,CCOC(=O)c1cn(CC)c2c(F)c(F)c(F)c(C)c2c1=O
17,164 to 166,CCOC(=O)c1cn(C)c2cc(F)ccc2c1=O
18,75,COC(=O)CCCOc1cc([N+](=O)[O-])c(C=O)cc1OC
19,136,CN(C)n1c(Br)nn(C(=O)Oc2ccccc2)c1=O
